Reference: US10509041B2, “Glucose derivative, and cell imaging method and imaging agent using said derivative” (HIROSAKI UNIVERSITY, priority 2014, dated 2019)

Tests used:
[1] = test system: mouse insulinoma cells (MIN6); assay: Influence of excessive D-glucose or L-glucose on increase in fluorescence intensity caused by CDG or CLG in MIN6 cells; assay type: cell-based; details: 100 μM, 37° C. 5 min, MIN6 culture day 13, versus non-excessive glucose control
Procedure: Whether or not increase in fluorescence intensity caused by the administration of the blue fluorescent D-glucose derivative CDG (100 μM) to the mouse insulinoma cells MIN6 at culture day 13 was inhibited by a large excess of D-glucose or L-glucose was examined. The blue fluorescent L-glucose derivative CLG was similarly analyzed as a control. However, the following conditions were changed.
Although the usual KRB solution contains 129 mM NaCl and 5.6 mM D-glucose, the osmotic pressure of a control solution (non-excessive glucose administration group solution) for this experiment was adjusted to 270 mOsm by substituting a portion of NaCl with choline-Cl, in order to equalize charge and osmotic pressure between the control solution and a KRB solution for excessive glucose administration. Also, the KRB solution for excessive glucose administration was allowed to contain NaCl and glucose according to the composition given below. In this respect, choline-Cl was added thereto in order to equalize osmotic pressure between this solution and the control solution (non-excessive glucose administration group solution).
100 mM NaCl and 5.6 mM D-glucose (non-excessive glucose administration group solution)
100 mM NaCl and 50 mM D-glucose (50 mM excessive D-glucose administration group solution)
100 mM NaCl, 50 mM L-glucose, and 5.6 mM D-glucose (50 mM excessive L-glucose administration group solution)
These dedicated KRB solutions were also used as a solution for preparing CDG and CLG solutions in this Example.
CDG and CLG were placed on different plates for the experiment. A CDG solution (or a CLG solution) prepared using each dedicated KRB solution was administered thereto using an 8-channel pipette (37° C., 5 min). Before the administration, replacement with each dedicated KRB solution was carried out in advance, and the autofluorescence of each well was measured with a fluorescence microplate reader. The time from the start of the replacement to immediately before the administration was approximately 28 minutes.
After the completion of the administration, first, the fluorescent solution in each well was temporarily diluted using 200 μL of the dedicated KRB solution and then diluted using 300 μL of the usual KRB solution.
The influence of the presence of 50 mM L-glucose was also studied as a control in evaluating the influence of the presence of a large excess (50 mM) of D-glucose on increase in fluorescence intensity.

[2] = test system: MIN6 cell masses (spheroids); assay: Fluorescent imaging of tumor cell masses (spheroids) of MIN6 cells with mixed fluorescent glucose derivative solutions; assay type: cell-based, mouse; details: 3 minutes, 6 minutes after start of washout
Procedure: A fluorescent mixed solution containing 100 μM CDG, 100 μM 2-NBDLG, and 20 μM 2-TRLG (CDG/2-NBDLG/2-TRLG) was administered at 37° C. for 3 minutes to MIN6 cell masses (spheroids) at culture day 17, and fluorescent imaging was conducted.
10 μL of a culture solution containing MIN6 cells suspended at a density of 6×10^4 cells/mL was added dropwise onto each glass cover slip, and then, the glass cover slip was left standing for 40 minutes in an incubator for fixation to the glass surface. The cells were cultured by the addition of 3 mL of a culture solution (600 cells/slip). Spheroids were formed by continuing the culture for 15 to 17 days. Half the amount of the culture solution was replaced with a fresh one once every three days.
The MIN6 cells used were cells kindly provided by professor Junichi Miyazaki (Osaka University) and subcultured 6 to 10 times. Half the amount of the culture solution was replaced with a fresh one once every two days.
13.4 g of high glucose-containing Dulbecco's modified Eagle's Medium (DMEM-HG) (Sigma-Aldrich, #D5648), 3.4 g of NaHCO3, and 5 μL of 2-mercaptoethanol were dissolved in 1 L of ultrapure water, and the pH of the solution was adjusted to 7.30 to 7.35 in a CO2 incubator of 37° C. The culture solution was supplemented with fetal bovine serum (Hyclone, Cat# SH30070.03) at a final concentration of 10% and penicillin-streptomycin at a final concentration of 0.5%.
The whole amount of the 0.5 mg CDG vial was recovered using 0.73 mL in total of 10% DMSO and dissolved by addition to 7.0 ml of a KRB solution for image acquisition according to the method described in Non Patent Literature 2.
The whole amount of one 0.5 mg 2-NBDLG vial was dissolved in 7.3 mL of a KRB solution for image acquisition.
The CDG solution and the 2-NBDLG solution were mixed at a ratio of 1:1. The whole amount of the 0.2 mg 2-TRLG vial was recovered using 130 μL in total of DMSO and mixed with 13 ml of the CDG+2-NBDLG mixed solution according to the method described in Non Patent Literature 2 (final concentration: 100 μM CDG+100 μM 2-NBDLG+20 μM 2-TRLG mixed solution). […]
The glass cover slip with the cultured MIN6 cells was transferred into the KRB solution for image acquisition in a perfusion chamber loaded on a stage of a fluorescence microscope, followed by measurement. […]
The KRB solution for image acquisition was warmed in advance in an aluminum syringe heater and supplied to the perfusion chamber through hydrostatic pressure. […] Immediately before being introduced to the perfusion chamber, the solution was rewarmed via an inline heater so that the actually measured temperature of the perfusate in an observation region in the chamber was adjusted to 36±1° C. […]

[3] = Fluorescence spectrum (excitation and fluorescence maxima); assay type: physicochemical
Text: The fluorescence spectra of CDG synthesized in (1) and QDG synthesized in (2) were compared with the fluorescence spectrum of 2-NBDLG (manufactured by Peptide Institute, Inc.).
The numeric values described above the graph denote the fluorescence maximum of CDG and QDG, respectively. It is evident that the fluorescence maximum was largely shifted to shorter wavelength as compared with the fluorescence maximum of 2-NBDLG present around 550 nm.

maximum excitation wavelength (Ex max) [3]	maximum fluorescence wavelength (Em max) [3]	Structure (SMILES)	effect of 50 mM D-glucose on increase in fluorescence intensity caused by administration [1]	effect of 50 mM L-glucose on increase in fluorescence intensity caused by administration [1]	uptake into cells of MIN6 spheroids, intracellular localization ([2]; 100 μM CLG+100 μM 2-NBDLG+20 μM 2-TRLG mixed solution, culture day 15)	uptake into cells of MIN6 spheroids, intracellular localization ([2]; 100 μM CDG+100 μM 2-NBDLG+20 μM 2-TRLG mixed solution, culture day 17)
366.5 nm	454.5 nm	O=c1ccc2ccc(NC3C(O)OC(CO)[C@H](O)[C@H]3O)cc2o1 (stereo partly drawn) [CLG, 2-deoxy-2-(2-oxo-2H-chromen-7-yl)amino-L-glucose]	slightly inhibited	not inhibited	strongly taken not only into the cytoplasm but into the nucleus	–
366.5 nm	454.5 nm	O=c1ccc2ccc(NC3C(O)OC(CO)[C@@H](O)[C@@H]3O)cc2o1 (stereo partly drawn) [CDG, 2-deoxy-2-(2-oxo-2H-chromen-7-yl)amino-D-glucose]	significantly suppressed	not suppressed	–	not only taken into the cytoplasm but unexpectedly taken into the nucleus
